# Test results as given in patent US20090312361A1, “NOVEL PHARMACEUTICAL COMPOSITIONS FOR TREATING ACQUIRED CHRONIC PAIN AND ASSOCIATED DYSPHORIA” (priority 2004, published 2009).
# What was measured:
# [1] = cited from earlier work
# μ-opiate receptors = μ-opiate receptors (Homo sapiens, UniProt P35372); conditions: cited from earlier work
# [2] = system: neurogenic pain in the distal lower limbs, feet and digits; lower back pain; assay: Treatment of patient with severe back pain (Patient 1, case report); conditions: Patient 1, oral tramadol at doses up to 500 mg per day as needed
# child = conditions: 4 mg/kg of tramadol to a child; cited from earlier work
# pain = conditions: cited from earlier work
# [3] = cited from earlier work; for accumulation: during multiple dose treatment with tramadol
# [4] = system: neuropathic pain (secondary peripheral distal neuropathy of both feet and legs); assay: Treatment of patient suffering from diabetic neuropathy (Patient 2, case report); type: in vivo, human
# Experimental: Patient 2 was a person with a history of untreated diabetes. Secondary peripheral distal neuropathy of both feet and legs was among the patients' clinical complaints. […] The patient gradually self escalated the dosage of aspirin to 10 to 12×325 mg tablets per day. The patient then presented after self treatment for several weeks at the emergency room complaining of gastric pain and blood in the vomitus. […] The patient was stabilized through dietary intervention with antacids and released after several days.
# Chain of μ-opiate receptors (P35372 whole entry): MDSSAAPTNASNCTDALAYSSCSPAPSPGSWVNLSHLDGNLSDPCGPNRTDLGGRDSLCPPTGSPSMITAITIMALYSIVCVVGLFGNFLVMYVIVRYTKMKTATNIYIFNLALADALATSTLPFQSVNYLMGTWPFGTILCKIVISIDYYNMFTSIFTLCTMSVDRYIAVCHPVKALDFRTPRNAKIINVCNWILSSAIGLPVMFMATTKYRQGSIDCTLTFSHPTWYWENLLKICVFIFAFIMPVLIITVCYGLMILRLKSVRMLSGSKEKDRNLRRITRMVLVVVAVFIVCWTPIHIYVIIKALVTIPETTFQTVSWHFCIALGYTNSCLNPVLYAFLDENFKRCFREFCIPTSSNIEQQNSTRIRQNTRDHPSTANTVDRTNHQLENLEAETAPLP
smiles,measurement,setting,value
"Cn1c(=O)c2c(ncn2C)n(C)c1=O [caffeine, 3,7-dihydro-1,3,7-trimethyl-1H-purine-2,6-dione]",time to maximal plasma concentrations,"[1]; after oral, rectal or parenteral administration",≤ 1 h
same,half-life in plasma,[1]; in vivo,3 to 7 h
"COc1cccc(C2(O)CCCCC2CN(C)C)c1 (racemic) [tramadol, (+/−)-trans (RR,SS)-2-[(di-methylamino)methyl]-1-(3-methoxyphenyl)cyclohexanol]","affinity for μ-opiate receptors, fold less than codeine",μ-opiate receptors; relative to codeine,10 fold
same,"affinity for μ-opiate receptors, fold less than d-propoxyphene",μ-opiate receptors; relative to d-propoxyphene,100 fold
same,affinity for μ-opiate receptors compared with dextromethorphan,μ-opiate receptors; relative to dextromethorphan,equivalent to dextromethorphan
same,"affinity for μ-opiate receptors, fold less than morphine",μ-opiate receptors; relative to morphine,6.000 fold
same,reported pain range,[2],tolerable
same,side effects,[2],no significant side effects
same,adverse effect after inadvertent administration,child,seizure activity
same,duration of the analgesic effect,pain; after a single oral dose of tramadol 100 mg,about 6 hours
same,time to peak serum concentrations,[3]; after oral administration,≤ 2 h
same,accumulation,[3],approximately 2 fold
"CC(=O)Oc1ccccc1C(=O)O [aspirin, acetylsalicylic acid]",diagnosis after self treatment,"[4]; Patient 2, 10 to 12×325 mg tablets per day for several weeks",gastro-esophageal erosion and hemorrhage
same,control of neuropathic pain,"[4]; Patient 2, treatment with aspirin and other NSAIDs",only marginally effective
"CN(C)C[C@H]1CCCC[C@]1(O)c1cccc(O)c1 [M1 derivative, O-desmethyltramadol]",analgesic potency relative to the parent drug,pain; relative to tramadol,at least twice the analgesic potency of the parent drug
same,accumulation,[3],approximately 2 fold
